Measured values reported in patent US20100010037A1, “1H-PYRROLO[2,3-B]PYRIDINE DERIVATIVES USEFUL AS HSP90 INHIBITORS” (VERNALIS (R&D) LTD., priority 2006, published 2010).

target: T1, human full-length HSP90 (Homo sapiens, UniProt P08238); assay: Fluorescence polarization assay (competitive displacement of fluorescein-labelled probe from HSP90); type: binding; details: human full-length HSP90 200 nM, probe 80 nM; read-out: FP IC50 (activity in the fluorescence polarization assay)
T1 construct: E. coli expressed human full-length HSP90 protein; made in house; host or cells: E. coli
T1 sequence (P08238 whole entry): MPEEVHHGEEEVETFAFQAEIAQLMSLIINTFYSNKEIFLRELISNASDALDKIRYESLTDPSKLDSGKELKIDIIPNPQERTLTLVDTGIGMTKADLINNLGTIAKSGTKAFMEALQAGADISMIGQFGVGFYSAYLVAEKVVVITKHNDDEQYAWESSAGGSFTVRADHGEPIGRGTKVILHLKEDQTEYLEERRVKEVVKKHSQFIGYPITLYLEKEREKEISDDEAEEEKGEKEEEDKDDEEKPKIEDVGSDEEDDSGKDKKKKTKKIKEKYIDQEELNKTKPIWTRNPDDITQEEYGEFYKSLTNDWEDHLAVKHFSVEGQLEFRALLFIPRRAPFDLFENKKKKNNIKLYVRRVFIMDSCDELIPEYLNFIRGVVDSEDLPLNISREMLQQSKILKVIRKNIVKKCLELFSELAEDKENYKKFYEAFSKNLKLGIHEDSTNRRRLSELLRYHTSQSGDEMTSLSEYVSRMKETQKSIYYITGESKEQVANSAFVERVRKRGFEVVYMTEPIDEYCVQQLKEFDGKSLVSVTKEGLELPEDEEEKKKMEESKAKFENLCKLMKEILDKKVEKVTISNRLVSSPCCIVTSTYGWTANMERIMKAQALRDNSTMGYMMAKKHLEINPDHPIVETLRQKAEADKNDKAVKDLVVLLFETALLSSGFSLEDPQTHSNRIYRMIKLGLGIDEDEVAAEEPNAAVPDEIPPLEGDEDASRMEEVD
Text: Fluorescence Polarization Assay
Fluorescence polarization {also known as fluorescence anisotropy} measures the rotation of a fluorescing species in solution, where the larger molecule the more polarized the fluorescence emission. When the fluorophore is excited with polarized light, the emitted light is also polarized. The molecular size is proportional to the polarization of the fluorescence emission.
The fluoroscein-labelled probe—
binds to HSP90 {full-length human, full-length yeast or N-terminal domain HSP90} and the anisotropy {rotation of the probe:protein complex} is measured.
Test compound is added to the assay plate, left to equilibrate and the anisotropy measured again. Any change in anisotropy is due to competitive binding of compound to HSP90, thereby releasing probe.
Chemicals are of the highest purity commercially available and all aqueous solutions are made up in AR water. • 1) Costar 96-well black assay plate #3915 • 2) Assay buffer of (a)100 mM Tris pH7.4; (b) 20 mM KCl; (c) 6 mM MgCl2. Stored at room temperature. • 3) BSA (bovine serum albumen) 10 mg/ml (New England Biolabs # B9001S) • 4) 20 mM probe in 100% DMSO stock concentration. Stored in the dark at RT. Working concentration is 200 nM diluted in AR water and stored at 4° C. Final concentration in assay 80 nM. • 5) E. coli expressed human full-length HSP90 protein, purified >95% (see, e.g., Panaretou et al., 1998) and stored in 50 μL aliquots at −80° C.
Protocol • 1) Add 100 μl 1× buffer to wells 11A and 12A (=FP BLNK) • 2) Prepare assay mix—all reagents are kept on ice with a lid on the bucket as the probe is light-sensitive.
• 3) Aliquot 100 μl assay mix to all other wells • 4) Seal plate and leave in dark at room temp for 20 minutes to equilibrate
Compound Dilution Plate—1×3 dilution series • 1) In a clear 96-well v-bottom plate—{# VWR 007/008/257} add 10 μl 100% DMSO to wells B1 to H11 • 2) To wells A1 to A11 add 17.5 μl 100% DMSO • 3) Add 2.5 μl cpd to A1. This gives 2.5 mM {50×} stock cpd—assuming cpds 20 mM. • 4) Repeat for wells A2 to A10. Control in columns 11 and 12. • 5) Transfer 5 μl from row A to row B—not column 12. Mix well. • 6) Transfer 5 μl from row B to row C. […] In column 11 {provides standard curve} only add compound B11-H11. Add 2 μl of 100 mM standard cpd to wells B12-H12 {is positive control} • 13) The Z′ factor is calculated from zero controls and positive wells. It typically gives a value of 0.7-0.9.

Row | IC50 [nM] | SMILES
1 | 1000 to 10000 | N#Cc1c[nH]c2nc(OCCCN3CCCCC3)cc(-c3ccc(Cl)cc3Cl)c12 [Example 11, 4-(2,4-Dichloro-phenyl)-6-(3-piperidin-1-yl-propoxy)-1H-pyrrolo[2,3-b]pyridine-3-carbonitrile]
2 | 1000 to 10000 | N#Cc1c[nH]c2nccc(-c3cccc(O)c3)c12 [Example 12, 4-(3-Hydroxy-phenyl)-1H-pyrrolo[2,3-b]pyridine-3-carbonitrile]
3 | 1000 to 10000 | CCN(CC)CCOc1cccc(-c2ccnc3[nH]cc(C#N)c23)c1 [Example 13, 4-[3-(2-Diethylamino-ethoxy)-phenyl]-1H-pyrrolo[2,3-b]pyridine-3-carbonitrile]
4 | < 1000 | N#Cc1c[nH]c2nc(Cl)cc(-c3cccc(O)c3)c12 [Example 14, 6-Chloro-4-(3-hydroxy-phenyl)-1H-pyrrolo[2,3-b]pyridine-3-carbonitrile]
5 | < 1000 | COc1cc(-c2ccccc2)c2c(C#N)c[nH]c2n1 [Example 15, 6-methoxy-4-(-phenyl)-1H-pyrrolo[2,3-b]pyridine-3-carbonitrile]

The next lines start with the compound.

Row | SMILES | IC50 [nM]
6 | Cc1ccc(-c2ccnc3[nH]cc(C#N)c23)c(C)c1 [Example 1, 4-(2,4-Dimethyl-phenyl)-1H-pyrrolo[2,3-b]pyridine-3-carbonitrile] | < 1000
7 | N#Cc1c[nH]c2nccc(-c3ccc(Cl)cc3Cl)c12 [Example 2, 4-(2,4-Dichloro-phenyl)-1H-pyrrolo[2,3-b]pyridine-3-carbonitrile] | < 1000
8 | N#Cc1c[nH]c2nc(Cl)cc(-c3ccc(Cl)cc3Cl)c12 [Example 3, 6-Chloro-4-(2,4-dichloro-phenyl)-1H-pyrrolo[2,3-b]pyridine-3-carbonitrile] | < 1000
9 | COc1cc(-c2ccnc3[nH]cc(C#N)c23)c(Cl)cc1Cl [Example 4, 4-(2,4-Dichloro-5-methoxy-phenyl)-1H-pyrrolo[2,3-b]pyridine-3-carbonitrile] | < 1000
10 | COc1cc(-c2cc(Cl)nc3[nH]cc(C#N)c23)c(Cl)cc1Cl [Example 5, 6-Chloro-4-(2,4-dichloro-5-methoxy-phenyl)-1H-pyrrolo[2,3-b]pyridine-3-carbonitrile] | < 1000
11 | Cc1ccc(-c2ccnc3[nH]cc(Br)c23)c(C)c1 [Example 6] | 1000 to 10000
12 | Cc1ccc(-c2ccnc3[nH]cc(C=O)c23)c(C)c1 [Example 7, 4-(2,4-Dimethyl-phenyl)-1H-pyrrolo[2,3-b]pyridine-3-carbaldehyde] | < 1000
13 | CCN(CC)CCOc1cc(-c2ccccc2)c2c(C#N)c[nH]c2n1 [Example 9, 6-(2-Diethylamino-ethoxy)-4-phenyl-1H-pyrrolo[2,3-b]pyridine-3-carbonitrile] | > 10000
14 | CCN(CC)CCOc1cc(-c2ccc(Cl)cc2Cl)c2c(C#N)c[nH]c2n1 [Example 10, 4-(2,4-Dichloro-phenyl)-6-(2-diethylamino-ethoxy)-1H-pyrrolo[2,3-b]pyridine-3-carbonitrile] | 1000 to 10000

tested on: not listed separately; assay: Growth inhibition assay: cytotoxicity by sulforhodamine B (SRB) assay; type: cell-based; details: SRB stain, absorbance at 540 nm; cell line not named
Method: A growth inhibition assay was also employed for the evaluation of candidate HSP90 inhibitors:
Assessment of Cytotoxicity by Sulforhodamine B (SRB) Assay: Calculation of 50% Inhibitory Concentration (IC50).
Day 1 • 1) Determine cell number by haemocytometer. • 2) Using an 8 channel multipipettor, add 160 μl of the cell suspension (3600 cells/well or 2×10^4 cells/ml) to each well of a 96-well microtitre plate. • 3) Incubate overnight at 37° C. in a CO2 incubator. […]
Day 6 • 8) Tip off medium into sink and immerse plate slowly into 10% ice cold trichloroacetic acid (TCA). […] Leave for 15 mins. • 12) Wash off unbound SRB stain with four washes of 1% acetic acid. • 13) Dry plates in incubator. • 14) Solubilise SRB using 100 μl of 10 mM Tris base and put plates on plate shaker for 5 mins. • 15) Determine absorbance at 540 nm using a plate reader. Calculate mean absorbance for quadruplicate wells and express as a percentage of value for control, untreated wells. • 16) Plot % absorbance values versus log drug concentration and determine the IC50.

Row | SMILES | IC50 [nM]
15 | COc1cc(-c2cc(Cl)nc3[nH]cc(C#N)c23)c(Cl)cc1Cl [Example 5, 6-Chloro-4-(2,4-dichloro-5-methoxy-phenyl)-1H-pyrrolo[2,3-b]pyridine-3-carbonitrile] | < 50000
